Patent US12247087B2, “Biological active peptide for improving enzyme activity of ACE2 and application thereof” (priority 2023, dated 2025)
Peptide text beside a SMILES is read from it.

Experiments:
ACE2 = target: T1, ACE2 (Mus musculus, UniProt Q8R0I0); test: ACE2 active fluorescence detection kit, influence of SCOL polypeptide on ACE2 enzyme activity in mice liver tissue supernatant; format: biochemical
T1 construct: taking 50 mg mice liver tissue, adding 500 μL lysis solution to perform the homogenization treatment; from tissue; host or cells: mouse liver tissue homogenate supernatant
T1 sequence (Q8R0I0 18-805): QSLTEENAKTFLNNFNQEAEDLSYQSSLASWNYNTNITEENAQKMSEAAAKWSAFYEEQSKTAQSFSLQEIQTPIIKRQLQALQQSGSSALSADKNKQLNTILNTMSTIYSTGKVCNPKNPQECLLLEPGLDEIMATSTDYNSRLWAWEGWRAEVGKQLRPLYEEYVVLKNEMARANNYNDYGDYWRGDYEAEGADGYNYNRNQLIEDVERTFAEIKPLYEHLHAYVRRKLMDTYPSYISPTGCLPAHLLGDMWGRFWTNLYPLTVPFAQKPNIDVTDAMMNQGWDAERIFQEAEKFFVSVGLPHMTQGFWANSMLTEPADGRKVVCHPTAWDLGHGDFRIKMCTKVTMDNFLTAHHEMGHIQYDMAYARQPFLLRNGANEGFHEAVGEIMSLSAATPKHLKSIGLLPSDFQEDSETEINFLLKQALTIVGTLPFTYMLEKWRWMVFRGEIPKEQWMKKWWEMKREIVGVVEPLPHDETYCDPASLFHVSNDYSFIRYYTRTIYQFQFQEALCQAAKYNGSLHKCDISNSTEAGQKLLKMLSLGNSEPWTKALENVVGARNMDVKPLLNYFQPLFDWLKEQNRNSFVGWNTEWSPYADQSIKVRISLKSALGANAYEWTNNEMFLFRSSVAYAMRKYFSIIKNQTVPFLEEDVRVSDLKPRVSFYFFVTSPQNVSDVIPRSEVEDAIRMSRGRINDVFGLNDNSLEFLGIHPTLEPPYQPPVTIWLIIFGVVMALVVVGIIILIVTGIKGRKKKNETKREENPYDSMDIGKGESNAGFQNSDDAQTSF
Description: Detection was performed by using Biyuntian ACE2 active fluorescence detection kit; the principle was as follows. […] When the substrate was fully cut by the ACE2, two ends of the polypeptide were separated, two fluorophores were separated, which led to detection of the fluorescence, such that the enzyme activity of the ACE2 protein enzyme can be sensitively detected by the fluorescence detection.
(1) preparation of samples: taking 50 mg mice liver tissue, adding 500 μL lysis solution to perform the homogenization treatment, centrifuging at 4° C. under 12000×g for 5 min, taking the supernatant for next step; […]
(3) adding 2 μL substrates in the 96 hole plate, individually adding 2.2 μL with concentration of 0.004, 0.008, 0.012, 0.016, 0.02 μg/μL of the total concentration in the PCR tubes, adding 8.8 μL supernatant sample in step (1), adding 96.8 μL buffer; and adding 11 μL lysis solution and 96.8 μL buffer in a blank control, mixing, sucking above 98 μL solution by a volley gun and adding to the 96 hole plate with substrates. Performing fluorescence detection by a fluorescence microplate reader after mixing, in particular, the setting temperature was at 37° C., the excitation wavelength was 325 nm, and the emission wavelength was 393 nm. […]

[1] = target: T2, novel coronavirus S protein-ACE2 protein binding (Homo sapiens, UniProt Q9BYF1); test: biochemical
T2 construct: purchased RayBio
T2 sequence (Q9BYF1 18-740): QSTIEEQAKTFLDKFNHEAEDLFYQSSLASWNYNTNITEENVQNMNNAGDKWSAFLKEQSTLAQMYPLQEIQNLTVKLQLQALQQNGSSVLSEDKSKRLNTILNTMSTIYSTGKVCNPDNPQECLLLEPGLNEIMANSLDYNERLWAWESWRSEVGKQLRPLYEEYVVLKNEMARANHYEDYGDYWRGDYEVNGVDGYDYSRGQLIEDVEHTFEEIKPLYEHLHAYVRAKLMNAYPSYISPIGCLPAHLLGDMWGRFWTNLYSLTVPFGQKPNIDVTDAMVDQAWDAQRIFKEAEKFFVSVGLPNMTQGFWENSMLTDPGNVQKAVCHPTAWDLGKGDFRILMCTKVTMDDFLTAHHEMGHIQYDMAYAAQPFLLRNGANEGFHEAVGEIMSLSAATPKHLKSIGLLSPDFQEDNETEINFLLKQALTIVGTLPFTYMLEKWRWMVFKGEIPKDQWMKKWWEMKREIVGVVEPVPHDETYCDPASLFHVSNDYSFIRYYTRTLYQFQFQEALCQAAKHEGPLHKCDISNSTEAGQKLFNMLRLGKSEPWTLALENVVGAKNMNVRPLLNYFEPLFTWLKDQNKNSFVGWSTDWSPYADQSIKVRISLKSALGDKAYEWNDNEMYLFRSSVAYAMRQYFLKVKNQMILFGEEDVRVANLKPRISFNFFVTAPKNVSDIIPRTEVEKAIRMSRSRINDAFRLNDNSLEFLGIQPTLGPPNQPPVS

SMILES: CC[C@H](C)[C@H](N)C(=O)N1CCC[C@H]1C(=O)N[C@@H](CO)C(=O)N[C@H](C(=O)N[C@H](C(=O)N1CCC[C@H]1C(=O)N[C@@H](Cc1ccccc1)C(=O)N1CCC[C@H]1C(=O)N[C@@H](CO)C(=O)N[C@H](C(=O)N[C@H](C(=O)N[C@H](C(=O)N[C@@H](C)C(=O)N[C@H](C(=O)N[C@H](C(=O)N[C@H](C(=O)N[C@@H](CCSC)C(=O)O)[C@@H](C)O)[C@@H](C)O)[C@@H](C)O)C(C)C)[C@@H](C)O)[C@@H](C)O)[C@@H](C)O)[C@@H](C)O [SCOL peptide, Ile-Pro-Ser-Thr-Thr-Pro-Phe-Pro-Ser-Thr-Thr-Val-Ala-Thr-Thr-Thr-Met] (H-IPSTTPFPSTTVATTTM-OH; N-terminus and C-terminus assumed)
- activity of the ACE2 in the samples with the increase of the SCOL polypeptide concentration (ACE2; 0.004-0.02 μg/μL): increasing trend
- highest ACE2 activity relative to the initial activity (ACE2; SCOL polypeptide concentration 0.02 μg/μL, 37° C.): 3.76 times
- effect on S protein-ACE2 binding compared with the control group [1]: inhibiting effect
- inhibition at 800 µg/mL ([1]; read-out: highest inhibition rate of binding between S protein and ACE2): 65%
